Like-named read-outs stand apart in the source and are kept apart here.
How the values were obtained:
MtCA1 = biological target: T1, MtCA1 (Mycobacterium tuberculosis, UniProt P9WPJ7); experiment: biochemical; settings: for Selectivity Index (SI) hCA II/MtCA1: ratio of Ki values
T1 construct: made in house

MtCA2 = biological target: T2, MtCA2 (Mycobacterium tuberculosis, UniProt P9WPJ9); experiment: stopped-flow CO2 hydrase assay, MtCA2; assay type: biochemical; settings: for Selectivity Index (SI) hCA II/MtCA2: ratio of Ki values
T2 construct: made in house
Procedure: BTDs 2a-2t were submitted to a stopped-flow CO2 hydrase kinetic assay to evaluate the inhibitory profile against the mycobacterial β-CAs MtCA1, MtCA2, MtCA3 (Table 1), in comparison to the inhibitory effect on hCA I and II, which were selected due to their abundance in the human organism and thus off-target in this study.
A stopped-flow instrument from Applied Photophysics was utilized to assess the inhibition of CA-catalyzed CO2 hydration activity. […] The assay employed 20 mM HEPES (pH 8.3) as a buffer and 20 mM Na2SO4 to maintain constant ionic strength. The investigation focused on the initial rates of the CA-catalyzed CO2 hydration reaction over a duration of 10–100 s. CO2 concentrations ranging from 1.7 to 17 mM were employed to determine kinetic parameters and inhibition constants. For each inhibitor, a minimum of six traces of the initial 5–10% of the reaction were utilized to determine the initial velocity. Uncatalyzed rates were determined in a similar manner and subtracted from the overall observed rates. Inhibitor stock solutions (0.1 mM) were initially prepared in distilled–deionized water, followed by subsequent dilutions up to 0.01 nM with the assay buffer. To allow for the formation of the E-I complex, inhibitor and enzyme solutions were preincubated together for 15 min at room temperature before the assay. The inhibition constants were derived through nonlinear least-squares methods using PRISM and the Cheng–Prusoff equation, as previously reported, representing the mean from at least three different determinations.

MtCA3 = MtCA3 (Mycobacterium tuberculosis, UniProt P96878); experiment: biochemical; settings: for Selectivity Index (SI) hCA II/MtCA3: ratio of Ki values; for Ki: stopped-flow CO2 hydrase assay, mean from three assays
[1] = tested on: M. tuberculosis strain susceptible to rifampicin and isoniazid; experiment: tuberculostatic activity assay, strain susceptible to rifampicin and isoniazid; assay type: cell-based, Mycobacterium tuberculosis; settings: for number of M. tuberculosis colonies/standard inoculum volume (0.2 mL): 28 days, 37 °C
hCA I = biological target: hCA I; design: method as in PMID 31794211; settings: stopped-flow CO2 hydrase assay; cited from earlier work
hCA II = biological target: hCA II; design: method as in PMID 31794211; settings: stopped-flow CO2 hydrase assay; cited from earlier work
[2] = 1 µg/mL in Lowenstein Jensen medium
[3] = 2 µg/mL in Lowenstein Jensen medium

Chain of MtCA3 (P96878 550-764 limits assumed): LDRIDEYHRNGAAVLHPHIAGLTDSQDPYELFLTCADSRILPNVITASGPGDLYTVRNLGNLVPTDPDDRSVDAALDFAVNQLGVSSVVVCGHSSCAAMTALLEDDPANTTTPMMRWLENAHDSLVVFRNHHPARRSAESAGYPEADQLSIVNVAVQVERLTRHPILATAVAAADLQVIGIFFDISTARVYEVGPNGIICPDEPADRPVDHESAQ
T1 sequence (P9WPJ7 whole entry): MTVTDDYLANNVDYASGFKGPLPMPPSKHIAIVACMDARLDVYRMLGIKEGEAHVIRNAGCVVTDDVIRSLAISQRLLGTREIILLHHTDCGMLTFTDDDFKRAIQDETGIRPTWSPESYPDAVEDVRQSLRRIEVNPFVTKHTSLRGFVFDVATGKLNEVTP
T2 sequence (P9WPJ9 whole entry, looked up): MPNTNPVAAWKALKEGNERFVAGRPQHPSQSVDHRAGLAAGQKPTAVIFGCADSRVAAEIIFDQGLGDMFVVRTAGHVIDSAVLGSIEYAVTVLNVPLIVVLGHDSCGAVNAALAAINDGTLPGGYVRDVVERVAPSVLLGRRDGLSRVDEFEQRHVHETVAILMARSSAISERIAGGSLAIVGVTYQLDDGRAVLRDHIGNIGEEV

Row | Compound | Selectivity Index (SI) hCA II/MtCA1 (MtCA1) | Ki (MtCA1; stopped-flow CO2 hydrase assay, mean from three assays, read-out: Ki MtCA1) | Ki (MtCA2) | Selectivity Index (SI) hCA II/MtCA2 (MtCA2) | Selectivity Index (SI) hCA II/MtCA3 (MtCA3) | Ki (MtCA3) | number of M. tuberculosis colonies/standard inoculum volume (0.2 mL) [1, 2] | number of M. tuberculosis colonies/standard inoculum volume (0.2 mL) [1, 3] | Ki (hCA I) | Ki (hCA II) | Ki (MtCA1) | growth inhibition of mycobacteria (in words) ([1]; 1 µg/mL)
1 | O=C1Nc2ccc(O)cc2S(=O)(=O)N1 [2t] | 1.3 | 2390 ± 126 nM | 58.4 ± 4.1 nM | 51.8 | 66.3 | 45.6 ± 3.5 nM | 30–100 colonies | 0 colonies | 1890 nM | 3020 nM | – | –
2 | Cc1ccc2c(c1)S(=O)(=O)NC(=O)N2 [2c] | 0.8 | – | 41.3 ± 2 nM | 21.1 | 47.1 | 18.5 ± 1.6 nM | 0 colonies | 0 colonies | 1070 nM | 872 nM | 1050 ± 65 nM | active

— PMC10932284 (International Journal of Molecular Sciences, 2024)
